Data published in patent US12522601B2, “1,3,4-oxadiazole derivative compounds as histone deacetylase 6 inhibitor, and the pharmaceutical composition comprising the same” (CHONG KUN DANG PHARMACEUTICAL CORP., priority 2020, dated 2026).

How the values were obtained:
[1] = biological target: T1, human recombinant HDAC6 (Homo sapiens, UniProt Q9UBN7); test: In vitro HDAC enzyme activity inhibition assay, HDAC6 (HDAC Fluorimetric Drug Discovery Kit); assay type: biochemical; details: for HDAC6 Selectivity (fold): HDAC6 versus HDAC1; for IC50: human recombinant HDAC6, same protocol as the HDAC1 test
T1 construct: purchased Calbiochem Inc. 382180
T1 sequence (Q9UBN7 1-1215): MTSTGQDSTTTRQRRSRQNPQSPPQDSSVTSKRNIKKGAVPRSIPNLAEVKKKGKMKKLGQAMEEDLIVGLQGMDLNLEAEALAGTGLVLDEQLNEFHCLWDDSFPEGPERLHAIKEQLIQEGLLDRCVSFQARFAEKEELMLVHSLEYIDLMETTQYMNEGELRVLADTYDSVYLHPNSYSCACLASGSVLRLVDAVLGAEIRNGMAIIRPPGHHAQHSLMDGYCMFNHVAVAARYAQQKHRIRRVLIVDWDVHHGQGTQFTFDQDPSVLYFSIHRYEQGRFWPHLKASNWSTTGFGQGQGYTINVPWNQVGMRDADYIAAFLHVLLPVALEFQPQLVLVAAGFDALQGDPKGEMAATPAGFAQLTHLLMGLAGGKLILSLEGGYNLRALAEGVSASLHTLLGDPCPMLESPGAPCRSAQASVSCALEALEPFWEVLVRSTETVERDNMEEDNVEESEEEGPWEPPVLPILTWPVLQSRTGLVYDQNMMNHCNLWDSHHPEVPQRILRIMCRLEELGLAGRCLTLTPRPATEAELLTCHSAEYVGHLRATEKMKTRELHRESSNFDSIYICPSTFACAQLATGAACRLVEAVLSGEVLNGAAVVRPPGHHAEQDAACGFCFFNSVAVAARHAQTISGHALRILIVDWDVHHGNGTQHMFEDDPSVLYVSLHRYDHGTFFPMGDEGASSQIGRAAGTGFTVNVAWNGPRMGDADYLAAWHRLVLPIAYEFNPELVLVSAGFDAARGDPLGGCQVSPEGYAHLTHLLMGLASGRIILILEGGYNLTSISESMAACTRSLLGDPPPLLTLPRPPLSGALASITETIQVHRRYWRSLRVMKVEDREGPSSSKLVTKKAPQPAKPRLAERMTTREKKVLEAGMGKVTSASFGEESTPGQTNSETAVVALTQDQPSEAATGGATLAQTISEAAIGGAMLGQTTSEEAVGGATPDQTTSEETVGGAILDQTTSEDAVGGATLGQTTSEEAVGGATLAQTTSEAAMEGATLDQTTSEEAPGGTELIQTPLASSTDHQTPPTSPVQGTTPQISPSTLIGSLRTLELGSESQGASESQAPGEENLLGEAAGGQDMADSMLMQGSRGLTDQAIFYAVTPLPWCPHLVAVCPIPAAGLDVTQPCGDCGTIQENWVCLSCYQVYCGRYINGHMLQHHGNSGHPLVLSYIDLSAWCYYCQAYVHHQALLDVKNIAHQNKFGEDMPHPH
Experimental: (§1) In order to confirm the selectivity of the compounds represented by Chemical Formula I of the present invention to HDAC6 through HDAC1 and HDAC6 enzyme activity inhibition experiments, a comparison experiment was performed using the material that has already been developed as a control group.
(§2) HDAC enzyme activity was measured using the HDAC Fluorimetric Drug Discovery Kit (Enzo Life Sciences, Inc., BML-AK511, 516). For the HDAC1 enzyme activity test, human recombinant HDAC1 (BML-SE456) was used as an enzyme source and Fluor de Lys®-SIRT1 (BNL-KI177) was used as a substrate. After dispensing 5-fold diluted compounds into a 96-well plate, 0.3 μg of enzyme and 10 μM substrate were added to each well of the plate and allowed to react at 30° C. for 60 minutes. Next, Fluor de Lys® Developer II (BML-KI176) was added and reacted for 30 minutes to complete the reaction, and then the fluorescence values (Ex 360, Em 460) were measured using a multi-plate reader (Flexstation 3, Molecular Device). The HDAC6 enzymes were tested using human recombinant HDAC6 (382180) from Calbiochem Inc., according to the same protocol as the HDAC1 enzyme activity test method. With respect to the final result values, respective IC50 values were calculated using GraphPad Prism 4.0 program, and results thereof were summarized in Table 5 below.

[2] = biological target: T2, human recombinant HDAC1 (Homo sapiens, UniProt Q13547); test: In vitro HDAC enzyme activity inhibition assay, HDAC1 (HDAC Fluorimetric Drug Discovery Kit); assay type: biochemical; details: human recombinant HDAC1, Fluor de Lys-SIRT1 substrate 10 μM, 30° C. for 60 minutes
T2 construct: purchased Enzo Life Sciences, Inc. BML-SE456
Experimental: as §1, §2

T2 sequence (Q13547 whole entry): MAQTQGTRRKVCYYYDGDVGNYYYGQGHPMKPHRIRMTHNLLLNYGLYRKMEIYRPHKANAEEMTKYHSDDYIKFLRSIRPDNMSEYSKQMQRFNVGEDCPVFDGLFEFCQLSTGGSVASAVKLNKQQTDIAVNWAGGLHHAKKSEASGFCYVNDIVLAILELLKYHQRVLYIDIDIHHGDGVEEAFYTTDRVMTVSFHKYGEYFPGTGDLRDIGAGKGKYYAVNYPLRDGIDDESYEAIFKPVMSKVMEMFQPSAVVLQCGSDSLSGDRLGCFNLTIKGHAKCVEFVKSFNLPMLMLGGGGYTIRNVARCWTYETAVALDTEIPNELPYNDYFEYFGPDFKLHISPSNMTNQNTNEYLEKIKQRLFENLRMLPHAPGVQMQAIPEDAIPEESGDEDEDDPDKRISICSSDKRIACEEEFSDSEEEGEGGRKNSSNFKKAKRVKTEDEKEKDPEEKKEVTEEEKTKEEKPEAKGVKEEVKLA

SMILES | HDAC6 Selectivity (fold) [1] [fold] | IC50 [1] [nM] | IC50 [2] [nM]
O=C(C1CN(c2ccccn2)C1)N(Cc1cn2ccc(-c3nnc(C(F)F)o3)cc2n1)c1cccc(F)c1 [Compound 4206, N-((7-(5-(difluoromethyl)-1,3,4-oxadiazol-2-yl)imidazo[1,2-a]pyridin-2-yl)methyl)-N-(3-fluorophenyl)-1-(pyridin-2-yl) azetidine-3-carboxamide] | 361 | 138 | > 50000
CCN1CCC(C(=O)N(Cc2cn3ccc(-c4nnc(C(F)F)o4)cc3n2)c2cccc(F)c2)CC1 [Compound 4138, N-((7-(5-(difluoromethyl)-1,3,4-oxadiazol-2-yl)imidazo[1,2-a]pyridin-2-yl)methyl)-1-ethyl-N-(3-fluorophenyl)piperidine-4-carboxamide] | 292 | 171 | > 50000
CC(C)N1CCN(C(=O)N(Cc2cn3ccc(-c4nnc(C(F)F)o4)cc3n2)c2ccccc2)CC1 [Compound 4034, N-((7-(5-(difluoromethyl)-1,3,4-oxadiazol-2-yl)imidazo[1,2-a]pyridin-2-yl)methyl)-4-isopropyl-N-phenylpiperazine-1-carboxamide] | 485 | 103 | > 50000
Fc1cccc(OCc2cn3ccc(-c4nnc(C(F)F)o4)cc3n2)c1 [Compound 3722, 2-(difluoromethyl)-5-(2-((3-fluorophenoxy)methyl)imidazo[1,2-a]pyridin-7-yl)-1,3,4-oxadiazole] | 174 | 287 | > 50000
FC(F)c1nnc(-c2ccn3cc(Cc4ccc(Cl)cc4)nc3c2)o1 [Compound 3593, 2-(2-(4-chlorobenzyl)imidazo[1,2-a]pyridin-7-yl)-5-(difluoromethyl)-1,3,4-oxadiazole] | 191 | 261 | > 50000
O=C(C1CCN(c2ncccn2)CC1)N(Cc1cn2ccc(-c3nnc(C(F)F)o3)cc2n1)c1cccc(F)c1 [Compound 4157, N-((7-(5-(difluoromethyl)-1,3,4-oxadiazol-2-yl)imidazo[1,2-a]pyridin-2-yl)methyl)-N-(3-fluorophenyl)-1-(pyrimidin-2-yl)piperidine-4-carboxamide] | 306 | 163 | > 50000
O=C(C1CCN(C2CC3(CCC3)C2)CC1)N(Cc1cn2ccc(-c3nnc(C(F)F)o3)cc2n1)c1cccc(F)c1 [Compound 4618, N-((7-(5-(difluoromethyl)-1,3,4-oxadiazol-2-yl)imidazo[1,2-a]pyridin-2-yl)methyl)-N-(3-fluorophenyl)-1-(spiro[3.3]heptan-2-yl)piperidine-4-carboxamide] | 308 | 162 | > 50000

More lines, in order of falling IC50 [1], values ahead:

HDAC6 Selectivity (fold) [1] [fold] | IC50 [1] [nM] | IC50 [2] [nM] | SMILES
21.2 | 2360 | > 50000 | CC(C)(C)OC(=O)N1CCN(C(=O)N(Cc2cn3ccc(-c4nnc(C(F)(F)F)o4)cc3n2)c2cccc(F)c2)CC1 [Compound 6892, tert-butyl 4-((3-fluorophenyl) ((7-(5-(trifluoromethyl)-1,3,4-oxadiazol-2-yl)imidazo[1,2-a]pyridine-2-yl)methyl)carbamoyl)piperazine-1-carboxylate]
125 | 401 | > 50000 | COC(=O)N1CCC(C(=O)N(Cc2cn3ccc(-c4nnc(C(F)F)o4)cc3n2)c2ccccc2)CC1 [Compound 4129, methyl 4-(((7-(5-(difluoromethyl)-1,3,4-oxadiazol-2-yl)imidazo[1,2-a]pyridin-2-yl)methyl)(phenyl)carbamoyl)piperidine-1-carboxylate]
216 | 232 | > 50000 | O=C(N1CCN(C2CCOCC2)CC1)N(Cc1cn2ccc(-c3nnc(C(F)F)o3)cc2n1)c1cccc(F)c1 [Compound 4090, N-((7-(5-(difluoromethyl)-1,3,4-oxadiazol-2-yl)imidazo[1,2-a]pyridin-2-yl)methyl)-N-(3-fluorophenyl)-4-(tetrahydro-2H-pyran-4-yl)piperazine-1-carboxamide]
217 | 230 | > 50000 | O=C(C1CCN(C2CCC(F)(F)CC2)CC1)N(Cc1cn2ccc(-c3nnc(C(F)F)o3)cc2n1)c1cccc(F)c1 [Compound 4145, 1-(4,4-difluorocyclohexyl)-N-((7-(5-(difluoromethyl)-1,3,4-oxadiazol-2-yl)imidazo[1,2-a]pyridin-2-yl)methyl)-N-(3-fluorophenyl)piperidine-4-carboxamide]
237 | 211 | > 50000 | FC(F)c1nnc(-c2ccn3cc(COc4ccccc4)nc3c2)o1 [Compound 3719, 2-(difluoromethyl)-5-(2-(phenoxymethyl)imidazo[1,2-a]pyridin-7-yl)-1,3,4-oxadiazole]
253 | 197 | > 50000 | O=C(C1CCN(C2CC3(COC3)C2)CC1)N(Cc1cn2ccc(-c3nnc(C(F)F)o3)cc2n1)c1cccc(F)c1 [Compound 4619, N-((7-(5-(difluoromethyl)-1,3,4-oxadiazol-2-yl)imidazo[1,2-a]pyridin-2-yl)methyl)-N-(3-fluorophenyl)-1-(2-oxaspiro[3.3]heptan-6-yl)piperidine-4-carboxamide]
382 | 131 | > 50000 | O=C(N1CCN(C2CCOCC2)CC1)N(Cc1cn2ccc(-c3nnc(C(F)F)o3)cc2n1)c1ccccc1 [Compound 4038, N-((7-(5-(difluoromethyl)-1,3,4-oxadiazol-2-yl)imidazo[1,2-a]pyridin-2-yl)methyl)-N-phenyl-4-(tetrahydro-2H-pyran-4-yl)piperazine-1-carboxamide]
386 | 130 | > 50000 | Fc1cccc(Cc2cn3ccc(-c4nnc(C(F)F)o4)cc3n2)c1 [Compound 3585, 2-(difluoromethyl)-5-(2-(3-fluorobenzyl)imidazo[1,2-a]pyridin-7-yl)-1,3,4-oxadiazole]
400 | 125 | > 50000 | CN(C)C(=O)N1CCN(C(=O)N(Cc2cn3ccc(-c4nnc(C(F)F)o4)cc3n2)c2ccccc2)CC1 [Compound 4047, N1-((7-(5-(difluoromethyl)-1,3,4-oxadiazol-2-yl)imidazo[1,2-a]pyridin-2-yl)methyl)-N4,N4-dimethyl-N1-phenylpiperazine-1,4-dicarboxamide]
400 | 125 | > 50000 | COC(=O)N1CCN(C(=O)N(Cc2cn3ccc(-c4nnc(C(F)F)o4)cc3n2)c2ccccc2)CC1 [Compound 4046, methyl 4-(((7-(5-(difluoromethyl)-1,3,4-oxadiazol-2-yl)imidazo[1,2-a]pyridin-2-yl)methyl)(phenyl)carbamoyl)piperazine-1-carboxylate]
696 | 71.8 | > 50000 | O=C(C1CCN(C2COC2)CC1)N(Cc1cn2ccc(-c3nnc(C(F)F)o3)cc2n1)c1ccccc1 [Compound 3783, N-((7-(5-(difluoromethyl)-1,3,4-oxadiazol-2-yl)imidazo[1,2-a]pyridin-2-yl)methyl)-1-(oxetan-3-yl)-N-phenylpiperidine-4-carboxamide]
